Test results: PMC12587574, “Mass balance, pharmacokinetics, metabolism, and excretion of radiolabeled acoziborole, a potential novel treatment for human African trypanosomiasis, following single microtracer oral dose to humans” (Antimicrobial Agents and Chemotherapy, 2025)
Where two headings read alike, the source gives them in different places.

Columns and labels:
[1] = Urinary excretion / renal clearance of acoziborole and SCYX-3109 by LC-MS/MS; type: in vivo; conditions: male, human, urine and plasma; CumAe0–240h/AUC0–240h; mean ± SD; 960 mg single oral dose of acoziborole; read-out: renal clearance CLr0–240h (converted)
Description: Urine samples were collected before IP administration (single urine void) and then during intervals of 0–6, 6–12, 12–24, 24–48, 48–72, 72–96, 96–120, 120–168, 168–192, 192–216, and 216–240 h post-dose and for the additional 48-h collection period starting on Day 15 post-dose, that is, 336–384 h. Samples were acidified with citric acid to avoid acoziborole degradation and were refrigerated until the end of the block collection periods. The total weight and volume of urine were then recorded. At the end of each collection period, two aliquots of acidified urine (20 mL) were taken from the sample and stored in polypropylene tubes at −20°C until further analysis for total radioactivity. Two aliquots of 1 mL acidified urine were collected into tubes containing bovine serum albumin in aqueous solution (to avoid non-specific adsorption of acoziborole) and NaCl for acoziborole and SCYX-3109 assays. […]
SGS Belgium (Wavre, Belgium) performed the analysis to determine acoziborole and SCYX-3109 concentrations, using validated bioanalytical assays with liquid chromatography with tandem mass spectrometry (LC-MS/MS) with a Supelco Ascentis Express C8, 2.7 µm, 50 × 2.1 mm I.D. separation column. In plasma, the lower limit of quantification (LLOQ) was 25 ng/mL for acoziborole and 10 ng/mL for SCYX-3109. […]

[2] = parameters: method as in PMID 21707314; conditions: cited from earlier work
[3] = Plasma pharmacokinetics of acoziborole and SCYX-3109 by LC-MS/MS, phase I mass balance study; type: in vivo, human
Description: This single-center, open-label, single group, non-randomized, single oral dose study was performed at Quotient Sciences Ltd (Ruddington, Nottingham, UK). Clinical trial authorization was obtained from the Medicines and Healthcare Products Regulatory Agency (UK). Approval for administration of [^14C]-acoziborole was obtained from an expert committee sponsored by the Department of Health and Social Care in the United Kingdom (Administration of Radioactive Substances Advisory Committee [ARSAC]), and from the ARSAC-accredited Quotient Sciences’ nuclear medicine practitioner. This study was approved by a local research ethics committee in the United Kingdom and was conducted in compliance with the Declaration of Helsinki and the International Conference on Harmonisation E6 Guideline for Good Clinical Practice. The study was registered in clinicaltrials.gov (NCT04270981) and in EudraCT (reference 2019-004059-35). Written informed consent was obtained from all participants before undertaking any study-related procedures.
Participants were admitted in the evening of the day before dosing (Day −1) and were dosed in the morning of Day 1, following an overnight fast from food and drink of a minimum of 9 h. They remained fasted until approximately 4 h post-dose, at which time lunch was provided. Participants remained resident in the clinic until up to 240 h after dosing (up to Day 11). […] However, due to the COVID-19 pandemic, instead of returning for the outpatient visits, participants were requested to perform home collection of feces for a 48-h period (i.e., Days 31–33, Days 59–61, Days 89–91, and Days 119–121). Collected samples were couriered to the clinical unit at the end of each collection period. A follow-up call took place 5–10 days after the final outpatient visit to ensure the well-being of participants.
Venous blood samples were collected via an indwelling cannula or by venepuncture. A 12 mL sample was taken into heparinized glass tube and chilled on ice immediately before IP administration and 3 mL samples were taken at 1, 4, 9, 12, 24, 48, 72, 96, 120, 144, 168, and 240 h and on Days 15, 31, 59, 89, and 119 after IP administration. The first 0.5 mL of blood withdrawn via cannula was discarded. One aliquot of heparinized whole blood (1 mL) per time point was stored at or below −20°C for total radioactivity analysis. The remaining blood was centrifuged, and the harvested plasma was stored at approximately −20°C for bioanalysis or transferred (exactly 1 mL) into polypropylene tubes pre-filled with 5 µL formic acid. One plasma sample (0.5 mL) was used for metabolite profiling while another (0.5 mL) was used for parent drug and SCYX-3109 metabolite analysis. The remaining plasma was used for total radioactivity analysis.
SGS Belgium (Wavre, Belgium) performed the analysis to determine acoziborole and SCYX-3109 concentrations, using validated bioanalytical assays with liquid chromatography with tandem mass spectrometry (LC-MS/MS) with a Supelco Ascentis Express C8, 2.7 µm, 50 × 2.1 mm I.D. separation column. In plasma, the lower limit of quantification (LLOQ) was 25 ng/mL for acoziborole and 10 ng/mL for SCYX-3109. In urine, the LLOQ was 10 ng/mL for both acoziborole and SCYX-3109.
PK parameters were calculated based on actual sampling times using standard non-compartmental analysis and WinNonlin version 8.1 software (Certara, Princeton, NJ, USA).
The SCYX-3109 to parent ratios were calculated based on Cmax and AUC0–∞.

[4] = Metabolite profiling and identification in pools of plasma, urine and feces (UPLC-MS, AMS); type: in vivo, human
Description: Individual pools of plasma (0–336 h, including time points at 1, 4, 9, 12, 24, 48, 72, 96, 120, 168, 240, and 336 h), urine (0–240 h, including time intervals 0–6, 6–12, 12–24, 24–48, 48–72, 72–96, 96–120, 120–168, 168–192, 192–216, and 216–240 h) and feces homogenates (0–240 h, including time intervals 0–6, 6–12, 12–24, 24–48, 48–72, 72–96, 96–120, 120–168, and 168–240 h) were prepared; for plasma this was done according to the method described in reference and for feces by using equal percentages per time point based on total volume. Subsequently, a pool per matrix was prepared by mixing equal volumes of each participant pool. In addition, a plasma pre-dose pool was prepared by mixing equal volumes of each pre-dose sample. For urine and feces, TNO blank pool was used to generate a pre-dose sample. Samples were stored below −18°C. Samples (100 µL plasma, 250 µL urine, and 200 mg feces) were pre-treated and injected onto an ultra-high performance liquid chromatography (UPLC)-MS system (Acquity UPLC system [Waters] coupled to a Q-Exactive [Thermo]; Acquity HSS C18 VanGuard 5 mm × 2.1 mm, 1.8 µm [Waters] pre-column and Acquity HSS C18 100 mm × 2.1 mm, 1.8 µm d.p. [Waters]). Fractions were collected and analyzed off-line by AMS. AMS analysis was performed on an AMS system, consisting of an elemental analyzer, a double gas interface, and a 1 MV multi-element AMS. All fecal homogenate sample analyzes were performed in triplicate. Plasma pre-dose and TNO blank urine and feces pools were used for background correction. The UPLC method qualification included determination of retention time stability and extraction recovery. Metabolites were tentatively assigned to fractions in which activity greater than the baseline was observed, based on retention time and structural information provided by DNDi. Presence of the metabolite was confirmed by accurate mass data from high-resolution mass spectrometric analysis.

[5] = parameters: method as in PMID 36763327; conditions: human, after acoziborole; cited from earlier work

For CC(C)(O)c1ccc(NC(=O)c2ccc(F)cc2C(F)(F)F)cc1O [SCYX-3109], the CL renal [1] is given as 0.6 mL/min, the “activity of the metabolite” value [2] is given as “inactive” and the AUC(0-t) ([3]; human, plasma, po, 960 mg, 960 mg single oral dose of acoziborole, N = 6, mean ± SD, read-out: AUC0–240h in plasma) is given as 4370 ± 1020 ng·h/mL. The AUC(0-t) ([3]; human, plasma, po, 960 mg, 960 mg single oral dose of acoziborole, N = 6, mean ± SD, read-out: AUC0–t in plasma) was 3730 ± 2320 ng·h/mL, the Tmax ([3]; human, plasma, po, 960 mg, 960 mg single oral dose of acoziborole, N = 6, mean ± SD, read-out: tmax in plasma) was 76.1 ± 28 h and the Cmax ([3]; male, human, plasma, 960 mg single oral dose of acoziborole, healthy males, N = 6, mean ± SD) was 30.5 ± 10.7 ng/mL. For the same molecule, the “plasma level relative to acoziborole, AUC0–240h ratio” value ([3]; over the 240-h period, 960 mg single oral dose) was 0.2%, the “proportion of the dose excreted, urine and feces combined” value ([4]; 0–240 h pools) was 12.3% and the “abundance relative to dose, feces” value ([4]; feces homogenates 0–240 h) was 12.3%. The “relative abundance in radiochromatogram, feces homogenates pool” value ([4]; feces homogenates 0–240 h) was 24.2%, the “relative abundance in radiochromatogram (share of total radioactivity), plasma pool” value ([4]; plasma pool 0–336 h, 960 mg single oral [14C]-acoziborole) was “could not be detected” and the “plasma concentrations at all time points” value [5] was “very low”.
